Data taken from article PMC9781916, “Antipsychotic- and Anxiolytic-like Properties of a Multimodal Compound JJGW08 in Rodents” (International Journal of Molecular Sciences, 2022).

Assays:
[1] = molecular target: T1, human serotonin 5-HT2A receptor (Homo sapiens, UniProt P28223); type: cell-based
T1 construct: host or cells: CHO-K1
Description: Tested and reference compounds were dissolved in dimethyl sulfoxide (DMSO) at a concentration of 10 mM. Serial dilutions were prepared in a 96-well microplate in assay buffer, and 8 to 10 concentrations were tested. […] The assay was executed according to the previously described protocol [45]. After thawing, cells were transferred to assay buffer (DMEM/HAM’s F12 with 0.1% protease-free BSA) and centrifuged. The cell pellet was resuspended in assay buffer, and coelenterazine h was added at final concentrations of 5 µM. The cell suspension was incubated at 16 °C (or 21 °C), protected from light with constant agitation for 16 h (or 4 h), and then diluted with assay buffer to the concentration of 100,000 cells/mL (or 250,000 cells/mL). After 1 h of incubation, 50 µL of the cell’s suspension was dispensed using automatic injectors built into the radiometric and luminescence plate counter MicroBeta2 LumiJET (PerkinElmer, Waltham, NA, USA) into white opaque 96-well microplates preloaded with test compounds. Immediate light emission generated following calcium mobilization was recorded for 30 s. In antagonist mode, after 25–30 min of incubation, the reference agonist was added to the above assay mix, and light emission was re-recorded. […] IC50 and EC50 values were calculated.

[2] = test system: mice; assay: MK-801-induced hyperlocomotion test in mice; type: in vivo; conditions: doses 0.15–2.5 mg/kg ip, MK-801 0.2 mg/kg ip
Description: Locomotor activity was recorded in actometers separately for each mouse. After 30 min of adaptation, the number of crossings of photo beams was measured during 60 min. […] MK-801 (0.2 mg/kg, ip) was administered 15 min before the experiment, while amphetamine (2.5 mg/kg) was administered subcutaneously (sc) 30 min before the experiment. […] Values are expressed as means ± SD, n = 8–10 mice per group. Statistical analysis: one-way ANOVA (Newman–Keuls post hoc), * p < 0.05, ** p < 0.01, *** p < 0.001.
The test was performed according to the method described by Carlsson et al.. The mobility of the animals was measured in actometers, i.e., in plastic Opto M3 cages (22 × 12 × 13 cm) connected to a computer with MultiDevice Software v.1.30 (Columbus Instruments, Columbus, OH, USA). The experimental cages were equipped with infrared sources on one side and sensors receiving the emitted rays on the other side of the cage. The crossing of each beam of infrared rays was classified as motor activity. The animals were placed individually in experimental cages immediately after administration of the tested compound, 30 min before the start of the test, to adapt to the new conditions and exclude the occurrence of hyperactivity caused by the change of the environment. Spontaneous locomotor activity was measured every 5 min for 60 min. Mice received two injections: of the tested compound or reference substance (30 min before the test, ip) and of amphetamine (2.5 mg/kg, 30 min before the test, sc) or MK-801 (0.2 mg/kg, 15 min before the test, ip). Control groups received an injection of saline and amphetamine or MK-801, or two injections of saline, respectively. Olanzapine was used as a reference compound.

[3] = test system: mice; assay: Spontaneous locomotor activity in mice; type: in vivo
Description: The locomotor activity of mice was measured as previously described using the same apparatus as described in paragraph 4.5. Each mouse was placed individually in a cage for a 30 min habituation period (directly after administration of the studied compound), and then the number of photobeams crossings was recorded (ambulation). Locomotor activity was evaluated every 1 or 5 min for 1–60 min depending on the observation period in behavioral tests (60 min for the hyperlocomotion test, 30 min for the marble burying test, and 1 min for the four-plate test). The cages were disinfected with an odorless disinfection solution after each mouse.

[4] = test system: 5-HT2A receptors; parameters: method as in doi:10.1016/j.molstruc.2022.134585; conditions: cited from earlier work

T1 sequence (P28223 whole entry): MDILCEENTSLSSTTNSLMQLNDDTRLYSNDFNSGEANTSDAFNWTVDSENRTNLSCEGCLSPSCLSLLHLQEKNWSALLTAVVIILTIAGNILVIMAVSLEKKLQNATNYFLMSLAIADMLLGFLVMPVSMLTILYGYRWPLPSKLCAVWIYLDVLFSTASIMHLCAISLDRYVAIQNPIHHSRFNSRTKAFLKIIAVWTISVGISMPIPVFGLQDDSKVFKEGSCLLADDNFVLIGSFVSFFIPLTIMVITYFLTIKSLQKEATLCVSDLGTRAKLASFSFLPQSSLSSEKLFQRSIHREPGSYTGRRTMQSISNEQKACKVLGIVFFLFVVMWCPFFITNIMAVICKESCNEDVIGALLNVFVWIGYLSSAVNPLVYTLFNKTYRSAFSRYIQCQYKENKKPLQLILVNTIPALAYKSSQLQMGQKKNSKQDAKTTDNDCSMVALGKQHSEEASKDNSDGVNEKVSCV

## COc1ccccc1N1CCN(CCCCCOc2ccccc2C(N)=O)CC1.Cl [JJGW08, 2-{5-[4-(2-metoksyfenylo)piperazin-1-ylo]pentoxy}benzamide hydrochloride]
[1]
  Agonist Mode Emax%: 21%
  Agonist Mode pEC50 ± Range: 5.9 ± 0.1
  Antagonist Mode Emax%: 5%
  Antagonist Mode pIC50 ± Range: 5.7 ± 0.4
  antagonistic properties (in words): very weak antagonistic properties
[1]; read-out: Antagonist Mode Kb
  Kb: 290 nM
[2]
  reduction of MK-801-induced hyperactivity: 24–71%
[3]; 0.15 mg/kg ip, 1 min session
  Number of Crossings: 38
[3]; 0.15 mg/kg ip, 30 min session
  Number of Crossings: 547
[3]; 0.15 mg/kg ip, 60 min session
  Number of Crossings: 1346
[3]; 0.3 mg/kg ip, 1 min session
  Number of Crossings: 46
[3]; 0.3 mg/kg ip, 30 min session
  Number of Crossings: 1027
[3]; 0.3 mg/kg ip, 60 min session
  Number of Crossings: 1588
[3]; 0.625 mg/kg ip, 1 min session
  Number of Crossings: 27
[3]; 0.625 mg/kg ip, 30 min session
  Number of Crossings: 634
[3]; 0.625 mg/kg ip, 60 min session
  Number of Crossings: 1671
[3]; 1.25 mg/kg ip, 1 min session
  Number of Crossings: 22
[3]; 1.25 mg/kg ip, 30 min session
  Number of Crossings: 1181
[3]; 1.25 mg/kg ip, 60 min session
  Number of Crossings: 1769
[3]; 2.5 mg/kg ip, 1 min session
  Number of Crossings: 19
[3]; 2.5 mg/kg ip, 30 min session
  Number of Crossings: 437
[3]; 2.5 mg/kg ip, 60 min session
  Number of Crossings: 1450
[3]; 0.15–2.5 mg/kg ip, 60-min and 30-min sessions
  effect on locomotor activity (in words): did not affect locomotor activity
[4]
  affinity (in words): moderate affinity
